Measured values as given in publication PMC3413639 (PLoS ONE, 2012).
Like-named read-outs stand apart in the source and are kept apart here. One block for each molecule: values may come before it.

Tests used:
5-HT1A receptors [1] = target: T1, 5-HT1A receptors (Rattus norvegicus, UniProt P19327); test: [11C]WAY-100635-PET of rats treated with 5,7-DHT, a toxicant for 5-HT neurons; conditions: 150 µg into right lateral ventricle, scan more than 2 weeks later
T1 sequence (P19327 1-422): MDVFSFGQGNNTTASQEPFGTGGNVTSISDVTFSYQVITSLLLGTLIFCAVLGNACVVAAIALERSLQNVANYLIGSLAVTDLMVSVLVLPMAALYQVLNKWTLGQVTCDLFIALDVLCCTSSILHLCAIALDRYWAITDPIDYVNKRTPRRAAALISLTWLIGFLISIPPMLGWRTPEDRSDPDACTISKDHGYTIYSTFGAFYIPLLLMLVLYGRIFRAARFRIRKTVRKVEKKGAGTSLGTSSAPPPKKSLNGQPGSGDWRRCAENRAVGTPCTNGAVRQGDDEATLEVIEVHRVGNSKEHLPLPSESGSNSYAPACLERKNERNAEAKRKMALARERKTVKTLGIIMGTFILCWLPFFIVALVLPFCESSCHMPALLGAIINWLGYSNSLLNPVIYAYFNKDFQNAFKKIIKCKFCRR

5-HT1A receptors [2] = target: T1, 5-HT1A receptors; test: Autoradiographic [35S]GTPγS binding in rat brain sections; type: biochemical; set-up: Twenty-micrometer-thick frozen brain sections were preincubated; from tissue; host or cells: rat brain (hippocampus and raphe nucleus): frozen sections or living animals
Description: Autoradiographic procedures were performed as described previously, with some modifications. The sections were preincubated for 15 min in 50 mM 4-(2-hydroxyethyl)-1-piperazineethanesulfonic acid (HEPES; pH 7.4) containing 10 mM NaCl, 3 mM MgCl2 and 0.2 mM ethylene glycol tetraacetic acid. A second preincubation using the same buffer containing 2 mM GDP was performed for 15 min. The sections were subsequently incubated in the same buffer containing 2 mM GDP, 0.2 mM dithiothreitol and 0.04 nM [^35S]GTPγS for 120 min. Basal [^35S]GTPγS binding was defined in the absence of test drugs. […] Nonspecific binding was estimated using 10 µM nonradioactive GTPγS. The incubation was terminated by ice-cold 50 mM HEPES (pH 7.0). The sections were desalted with ice-cold distilled water, dried, and placed in contact with an imaging plate for 2 days. Signal detection and image analysis were performed as described above.

5-HT1A receptors [3] = target: T1, 5-HT1A receptors; test: Ex vivo ARG, 5-HT1A receptor occupancy after drug administration; type: in vivo; set-up: Twenty-micrometer-thick frozen brain sections were preincubated; from tissue; host or cells: rat brain (hippocampus and raphe nucleus): frozen sections or living animals; conditions: for ED50: rat, ip, read-out: ED50 (5-HT1A receptor occupancy), intraperitoneal, ex vivo ARG
Description: Animals were then killed by decapitation 5 h and 30 min after their administration, respectively. Autoradiographic analysis was performed using procedures similar to in vitro ARG except for incubation temperature (37°C) and times for preincubation (30 sec), incubation (5 min) and rinsing (1 min). […] The doses of these drugs at half-maximal effect (ED50) were determined according to the following relationship: [drawing 2] where D is the dose of the drug.

[4] = rats; cited from earlier work
[5] = humans; cited from earlier work
5-HT1A receptors [6] = conditions: maximal safe dose; cited from earlier work
5-HT1A receptors [7] = target: T1, 5-HT1A receptors; test: [11C]WAY-100635-PET, BPND and 5-HT1A receptor occupancy; type: in vivo; set-up: Twenty-micrometer-thick frozen brain sections were preincubated; from tissue; host or cells: rat brain (hippocampus and raphe nucleus): frozen sections or living animals; conditions: for BPND Hippocampus / BPND Raphe: [11C]WAY-100635; for receptor occupancy at 3 mg/kg / ED50 / receptor occupancy at 1 mg/kg / receptor occupancy at 10 mg/kg / receptor occupancy at 30 mg/kg: rat, ip; for ED50: read-out: ED50 (5-HT1A receptor occupancy), intraperitoneal, PET
Description: All PET scans were carried out using a microPET Focus 220 scanner (Siemens Medical Solutions USA, Knoxville, TN). The rats were anesthetized with 1.5–2% isoflurane in air (2 L/min flow rate). […] All list-mode data were stored into 3D sinograms, which were then Fourier-rebinned into 2D sinograms (26 frames: 4×1, 8×2, and 14×5 min). Images were reconstructed using 2D-filtered back-projection with a 0.5-mm Hanning filter. All PET images were manually coregistered to the MRI template by spatial translation and rotation of original PET images without geometric expansion and contraction. ROIs were placed on the hippocampus and raphe nucleus using PMOD® image analysis software (PMOD Group, Zurich, Switzerland) with reference to the MRI template. Fine-tuning of the location of ROIs was then performed based on PET images at an early phase (0–30 min) of the scan in order to compensate for small mismatches between coregistered PET and MR images. The cerebellum was used as reference tissue because of its negligible density of 5-HT1A receptors.

5-HT1A receptors [8] = target: T1, 5-HT1A receptors; test: In vitro ARG, inhibition of [11C]WAY-100635 binding in rat brain sections; set-up: Twenty-micrometer-thick frozen brain sections were preincubated; from tissue; host or cells: rat brain (hippocampus and raphe nucleus): frozen sections or living animals; conditions: hippocampus and raphe nucleus; up to 1000 nM
Description: Rats were sacrificed by decapitation. Twenty-micrometer-thick frozen brain sections were preincubated for 30 min in 50 mM Tris-HCl (pH 7.4) containing 1 mM MnCl2. […] Subsequently, the sections were rinsed twice with ice-cold Tris-HCl buffer for 5 min and then desalted with ice-cold distilled water for 10 sec. These samples were warmly blow-dried and placed in contact with an imaging plate (Fuji Film, Tokyo, Japan) for 60 min. Signals on the imaging plate were detected by BAS5000 system (Fuji Film).

[9] = 1 mg/kg intraperitoneal, about 30 min before scan, mean ± S.E.
[10] = 3 mg/kg intraperitoneal + 30 mg/kg fluvoxamine (FLV) oral 30 min before pindolol, mean ± S.E.
[11] = 3 mg/kg intraperitoneal, about 30 min before scan, mean ± S.E.
[12] = 10 mg/kg intraperitoneal, about 30 min before scan, mean ± S.E.
[13] = 30 mg/kg intraperitoneal, about 30 min before scan, mean ± S.E.
[14] = read-out: Occupancy (%) Hippocampus

SMILES: NCCc1c[nH]c2c(O)cc(O)cc12 [5,7-DHT, 5,7-dihydroxytryptamine, reference compound]
BPND for [11C]WAY-100635 after toxicant treatment (5-HT1A receptors [1]; hippocampus): almost unchanged
BPND for [11C]WAY-100635 after toxicant treatment (5-HT1A receptors [1]; raphe nucleus): profoundly decreased

SMILES: CCCN(CCC)C1CCc2cccc(O)c2C1 (stereo not drawn) [8-OH-DPAT, 8-hydroxy-2-(di-n-propylamino) tetralin]
[35S]GTPγS binding (5-HT1A receptors [2]; hippocampus and raphe nucleus, addition of agonist): enhanced
[35S]GTPγS binding compared with 1 µM WAY-100635 (5-HT1A receptors [2]; raphe nucleus, 1 µM, p<0.01): significantly increased

SMILES: CC(C)NCC(O)COc1cccc2[nH]ccc12 (stereo not drawn) [Pindolol, reference compound]
5-HT1A receptor binding (occupancy), dose-dependent up to (5-HT1A receptors [3]; intraperitoneal, 30 min after administration, irrespective of region): ~70%
ED50 (5-HT1A receptors [3]; hippocampus): 8.5 mg/kg
ED50 (5-HT1A receptors [3]; raphe nucleus): 7.3 mg/kg
Proportion of protein-bound drug in plasma or serum [4]: 52%
Proportion of protein-bound drug in plasma or serum [5]: 57%
Slight increase in [35S]GTPγS binding (5-HT1A receptors [2]; high concentrations, hippocampus and raphe nucleus, p>0.05): not statistically significant
Occupancy of 5-HT1A autoreceptors (5-HT1A receptors [6]): 60%
BPND Hippocampus (5-HT1A receptors [7]; [9]): 4.787±0.676
BPND Raphe (5-HT1A receptors [7]; [9]): 1.129±0.164
BPND Hippocampus (5-HT1A receptors [7]; [10]): 3.670±0.315
BPND Raphe (5-HT1A receptors [7]; [10]): 0.783±0.178
BPND Hippocampus (5-HT1A receptors [7]; [11]): 3.517±0.119
BPND Raphe (5-HT1A receptors [7]; [11]): 0.752±0.093
BPND Hippocampus (5-HT1A receptors [7]; [12]): 2.190±0.757
BPND Raphe (5-HT1A receptors [7]; [12]): 0.459±0.153
BPND Raphe (5-HT1A receptors [7]; 30 mg/kg intraperitoneal + 30 mg/kg fluvoxamine (FLV) oral 30 min before pindolol): 0
BPND Hippocampus (5-HT1A receptors [7]; 30 mg/kg intraperitoneal + 30 mg/kg fluvoxamine (FLV) oral 30 min before pindolol, mean ± S.E.): 0.343±0.065
BPND Hippocampus (5-HT1A receptors [7]; [13]): 0.441±0.173
BPND Raphe (5-HT1A receptors [7]; [13]): 0.029±0.029
receptor occupancy at 3 mg/kg (5-HT1A receptors [7]; read-out: Difference in occupancy between hippocampus and raphe nucleus): ~50%
ED50 (5-HT1A receptors [7]; hippocampus): 5.6 mg/kg
ED50 (5-HT1A receptors [7]; raphe nucleus): 2.4 mg/kg
receptor occupancy at 1 mg/kg (5-HT1A receptors [7]; [14]): 15 ± 11.8%
receptor occupancy at 3 mg/kg (5-HT1A receptors [7]; [14]): 37 ± 5.6%
receptor occupancy at 10 mg/kg (5-HT1A receptors [7]; [14]): 58.1 ± 18.4%
receptor occupancy at 30 mg/kg (5-HT1A receptors [7]; [14]): 91.8 ± 3.4%
receptor occupancy at 1 mg/kg (5-HT1A receptors [7]; read-out: Occupancy (%) Raphe): 33.7 ± 14.5%
receptor occupancy at 3 mg/kg (5-HT1A receptors [7]; read-out: Occupancy (%) Raphe): 57.3 ± 2.8%
receptor occupancy at 10 mg/kg (5-HT1A receptors [7]; read-out: Occupancy (%) Raphe): 69.6 ± 14.6%
receptor occupancy at 30 mg/kg (5-HT1A receptors [7]; read-out: Occupancy (%) Raphe): 98.3 ± 1.7%
Blockage of 5-HT1A receptors by excess amounts of drug (5-HT1A receptors [8]): near-complete blockage

Effect on 5-HT1A receptor occupancies by pindolol (5-HT1A receptors [7]; 30 mg/kg oral, 30 min before pindolol treatment): had no effect
SMILES: COCCCC/C(=N\OCCN)c1ccc(C(F)(F)F)cc1 [fluvoxamine, reference compound]
